In patent US6498150B2, “Low molecular weight cell, bone marrow and immune stimulants” (priority 1995, dated 2002):
Where “and” joins values, the source holds several entries; their conditions need not be identical. Equal entries are not always repeated. Where two headings read alike, the source gives them in different places. Marks after values point to notes of the source that are not given here.

Key:
anti-Pn14 antibodies = system: anti-Pn14 antibodies; parameters: species or system BALB/c female mice; details: mouse, in vivo
CD34+ cells = test: Blood cell stimulation: CD34+ progenitor suspension culture, lineage marker ELISA; format: cell-based, human; details: for neutrophils, Percent difference (relative to control): CD15; for red blood cells, Percent difference (relative to control): glycophorin A
[1] = system: delayed type hypersensitivity (DTH); format: in vivo, mice
[2] = system: Hybridoma cells (ATCC #CRL-8014, OKT-8); test: Production of monoclonal antibodies from hybridomas (sandwich ELISA); format: cell-based; details: 200 pg/ml
[3] = system: CHO cells containing a cloned gene for tissue plasminogen activator (tPA); test: Stimulation of tPA production from CHO cells (IMUBIND total tPA ELISA); format: cell-based; details: for Culture Cell Density / Supernatant Concentration (tPA) / Supernatant Concentration relative to control / tPA per cell / tPA per cell relative to control / ELISA Optical Density: 1 pg/ml; for Culture Cell Density: cell numbers per milliliter, trypan-blue, hemacytometer; for Supernatant Concentration (tPA): from standard curve; for ELISA Optical Density: supernatant at end of log phase
[4] = Study 1: 1 ng/ml compound, 2000 cells per well, 10 days, CD14
[5] = Study 1: 1 ng/ml compound, 2000 cells per well, 10 days
[6] = Study 2: 1 ug/ml, 1700 cells per well

O=C(CCNC(=O)OCc1ccccc1)NCCOP(=O)(O)O [Taurox-BOP, N-carboxybenzoxy-β-alanyl-ethanolamine phosphate]
Mean Change in O.D. from pretest, Day 4 after injection with antigen (anti-Pn14 antibodies): 0
Mean Change in O.D. from pretest, Day 14 after injection with antigen (anti-Pn14 antibodies): 366
Mean Change in O.D. from pretest, Day 14 after injection with antigen (anti-Pn14 antibodies; ip): 877 and 515
monocytes, Percent difference (relative to control) (CD34+ cells; [4]): 18%
neutrophils, Percent difference (relative to control) (CD34+ cells; [5]): 21%
red blood cells, Percent difference (relative to control) (CD34+ cells; [5]): 0%
CD34 cells, Percent difference (relative to control) (CD34+ cells; [6]): 33%
RBC, Percent difference (relative to control) (CD34+ cells; [6]): 55%
monocytes, Percent difference (relative to control) (CD34+ cells; [6]): 9%

NCCC(=O)NCCS(=O)(=O)O [Taurox-S, β-alanyl-taurine]
Mean Change in O.D. from pre-boost, 10 days after boost with UNCONJUGATED polysaccharide (anti-Pn14 antibodies): 204
Mean Change in O.D. from pretest, Day 4 after injection with antigen (anti-Pn14 antibodies): 2.9
Mean Change in O.D. from pretest, Day 14 after injection with antigen (anti-Pn14 antibodies): 697
Mean Change in O.D. from pretest, Day 14 after injection with antigen (anti-Pn14 antibodies; ip): 681 and 671
monocytes, Percent difference (relative to control) (CD34+ cells; [4]): 47%
neutrophils, Percent difference (relative to control) (CD34+ cells; [5]): 55%
red blood cells, Percent difference (relative to control) (CD34+ cells; [5]): 50%

O=C(CCNC(=O)OCc1ccccc1)NCCS(=O)(=O)O [Taurox-SB, N-carboxybenzoxy-β-alanyl-taurine]
moderate responders compared with saline injected group ([1]; 24 hrs): more moderate responders than the saline injected group
Percent of Animals with Major DTH at 24 hrs ([1]; mouse, in vivo): 50* Percent
Percent of Animals with Major DTH at 48 hrs. ([1]; mouse, in vivo): 50%
Percent of Animals with Major DTH at either 24 or 48 hrs. ([1]; mouse, in vivo): 60%
Percent of Animals with Moderate DTH at 24 hrs ([1]; mouse, in vivo): 70%
moderate response rate at 24 hrs ([1]; mouse, in vivo): eight of ten
total treated animals with major immune response at 24 hours ([1]; mouse, in vivo): 14 animals
treated animals with major response at either 24 or 48 hours post challenge ([1]; mouse, in vivo): 21 animals
Percent of Animals with Major DTH at 24 hrs ([1]; mouse, in vivo, iv): 20% and 10%
Percent of Animals with Major DTH at 48 hrs. ([1]; mouse, in vivo, iv): 20% and 10%
Percent of Animals with Moderate DTH at 24 hrs ([1]; mouse, in vivo, iv): 70% and 60% and 50% and 80* Percent and 40%
Mean Change in O.D. from pre-boost, 10 days after boost with UNCONJUGATED polysaccharide (anti-Pn14 antibodies): 139
Mean Change in O.D. from pretest, Day 4 after injection with antigen (anti-Pn14 antibodies): 1.1
Mean Change in O.D. from pretest, Day 14 after injection with antigen (anti-Pn14 antibodies): 697
Mean Change in O.D. from pretest, Day 4 after injection with antigen (anti-Pn14 antibodies; ip): 6.2 and 3.9
Mean Change in O.D. from pretest, Day 14 after injection with antigen (anti-Pn14 antibodies; ip): 705 and 483
Increase of 1 gG, μg/ml over 0-control [2]: 316%
Increase of IgG, pg/cell over 0-control [2]: 93%
IgG, pg/cell ([2]; protein-free media): 80.6 pg/cell
1 gG ([2]; protein-free media, Mab in culture aliquots): 50 µg/mL
Culture Cell Density ([3]; listed as #1): 4.0 × 10^5
Culture Cell Density ([3]; listed as #2): 4.8 × 10^5
Culture Cell Density ([3]; listed as #3): 5.2 × 10^5
Supernatant Concentration (tPA) ([3]; listed as #1): 1,492.8 nanograms/ml
Supernatant Concentration (tPA) ([3]; listed as #2): 1,389.4 nanograms/ml
Supernatant Concentration (tPA) ([3]; listed as #3): 2,113.0 nanograms/ml
Supernatant Concentration relative to control ([3]; listed as #1): [3.5 × control]
tPA per cell ([3]; listed as #1): 3.73 Picograrns
tPA per cell relative to control ([3]; listed as #1): [1.9 × control]
Supernatant Concentration relative to control ([3]; listed as #2): [3.3 × control]
tPA per cell ([3]; listed as #2): 2.89 Picograrns
Supernatant Concentration relative to control ([3]; listed as #3): [5.0 × control]
tPA per cell ([3]; listed as #3): 4.06 Picograrns
tPA per cell relative to control ([3]; listed as #3): [2.1 × control]
ELISA Optical Density ([3]; listed as #1): 0.332
ELISA Optical Density ([3]; listed as #2): 0.317
ELISA Optical Density ([3]; listed as #3): 0.422
alteration of per-cell production of tPA ([3]; Table 2): about 2 fold
monocytes, Percent difference (relative to control) (CD34+ cells; [4]): 15%
neutrophils, Percent difference (relative to control) (CD34+ cells; [5]): 0%
red blood cells, Percent difference (relative to control) (CD34+ cells; [5]): 0%

N-carboxybenzoxy-β-alanyl aminoethylphosphonic acid [Taurox-BP]
Mean Change in O.D. from pre-boost, 10 days after boost with UNCONJUGATED polysaccharide (anti-Pn14 antibodies): 187
Mean Change in O.D. from pretest, Day 4 after injection with antigen (anti-Pn14 antibodies): 3.3
Mean Change in O.D. from pretest, Day 14 after injection with antigen (anti-Pn14 antibodies): 924
monocytes, Percent difference (relative to control) (CD34+ cells; [4]): 18%
neutrophils, Percent difference (relative to control) (CD34+ cells; [5]): 14%
red blood cells, Percent difference (relative to control) (CD34+ cells; [5]): 1%
CD34 cells, Percent difference (relative to control) (CD34+ cells; [6]): 0%
RBC, Percent difference (relative to control) (CD34+ cells; [6]): 4%
monocytes, Percent difference (relative to control) (CD34+ cells; [6]): 2%
